Patent EP4775571A1, “LPAR1 ANTAGONIST AND USE THEREOF” (Haisco Pharmaceutical Group Co., Ltd., priority 2023, dated 2025)

What was measured:
[1] = test system: bleomycin (BLM)-induced idiopathic pulmonary fibrosis (IPF); assay: Mouse model of bleomycin (BLM)-induced idiopathic pulmonary fibrosis (IPF); type: in vivo, C57BL/6j mice
Text: • 1) Screening and grouping: A total of 48 nine-week-old male C57BL/6j mice (experimental animals) were used in this study. Prior to the start of the experiment, the animals were divided into a sham-operated group (Group 1, 8 mice) and a model group (40 mice) based on their body weights. One week after model establishment, the model group animals were further divided into […] subgroups (Groups 2-6, n = 8 per group) based on their body weights. • 2) Animal model establishment: On day 1 of the experiment, the animals were anesthetised with Zoletil (50 mg/kg) and Xylazine (10 mg/kg). Mice in the model group received an intratracheal (i.t.) injection of bleomycin at a dose of 0.66 mg/kg (1 U/kg) in a volume of 50 µL on day 1. Mice in the sham-operated group (Group 1, […]) received an intratracheal injection of normal saline in a volume of 50 µL. • 3) Mode of administration of test compounds: Starting from day 7 of the experiment, the animals were treated as follows. Group 3: compound 22 was administered by oral gavage at a dose of 1 mg/kg at a volume of 10 mL/kg body weight, twice daily. Group 4: compound 22 was administered by oral gavage at a dose of 3 mg/kg at a volume of 10 mL/kg body weight, twice daily. Group 5: BMS-986278 was administered by oral gavage at a dose of 10 mg/kg at a volume of 10 mL/kg body weight, twice daily. Group 6: nintedanib was administered by oral gavage at a dose of 60 mg/kg at a volume of 10 mL/kg body weight, once daily. Sham-operated group (Group 1) and model group (Group 2): the vehicle was administered by oral gavage at a volume of 10 mL/kg body weight, twice daily. • 4) Test indicators: Lung tissues were collected at the study endpoint for pathological evaluation.

[2] = Pharmacokinetic test in rats; type: in vivo, SD rats; conditions: for pharmacokinetic characteristics in rats: conclusion in words; for Vd: read-out: Vdss
Protocol: 3.1. Experimental animals: Male SD rats, about 220 g, 6-8 weeks old, 6 rats/compound, purchased from Chengdu Ddossy Experimental Animals Co., Ltd.
3.2. Experimental design: On the day of the experiment, the SD rats were randomly grouped according to their body weights. The animals were fasted with water available for 12-14 h one day before the administration, and were fed 4 h after the administration. Table 4. Administration information
(§1) Before and after administration, 0.15 mL of blood was taken from the orbit under isoflurane anaesthesia and placed in an EDTAK2 centrifuge tube. The tube was centrifuged at 5000 rpm at 4°C for 10 min, and plasma was collected. Before analysis and detection, all samples were stored at -80°C, and the samples were quantitatively analysed by LC-MS/MS. Table 5. Pharmacokinetic parameters of test compound in plasma of rats

LPAR1 = biological target: T1, LPAR1 (Homo sapiens, UniProt Q92633); assay: Cell calcium flux assay (antagonist mode, LPA at EC80, FLIPR); type: cell-based; conditions: CHO-LPA1 cells, calcium flux, grades; read-out: LPAR1 IC50
T1 construct: expressed in transfected cells; host or cells: CHO (CHO-LPA1 cells)
T1 sequence (Q92633 whole entry): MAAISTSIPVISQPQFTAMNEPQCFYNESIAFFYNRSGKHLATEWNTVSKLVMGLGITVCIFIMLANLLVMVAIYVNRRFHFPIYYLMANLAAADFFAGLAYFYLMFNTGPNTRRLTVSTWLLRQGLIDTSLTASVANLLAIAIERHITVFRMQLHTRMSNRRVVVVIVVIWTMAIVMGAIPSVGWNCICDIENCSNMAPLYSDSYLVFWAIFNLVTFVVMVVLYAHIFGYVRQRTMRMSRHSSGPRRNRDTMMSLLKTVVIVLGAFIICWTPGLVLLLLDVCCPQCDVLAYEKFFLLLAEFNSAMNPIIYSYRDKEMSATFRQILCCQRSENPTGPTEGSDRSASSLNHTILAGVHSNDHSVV
Protocol: • 1) The test compound was diluted to a 400X stock solution with DMSO in a 384-well plate. • 2) 1 µl of compound solution from step 1 was transferred into 39 ul of assay buffer to prepare a 10X working solution in a 384-well plate using a Bravo automated liquid handling platform. • 3) CHO-LPA1 cells were cultured in F12 medium (10% FBS). • 4) When cells reached 80% confluence, the cells were dissociated using 0.25% trypsin-EDTA. • 5) Cell density was determined and the cells were diluted to 4x10e5/ml using F12 (10% FBS). • 6) 30 µl of the cell suspension was dispensed into a 384-well plate (corning 3764#) using a multidrop automated dispenser, resulting in 12,000 cells per well. The plate was incubated at 37°C with 5% CO2 for 18-20 hours. • 7) The medium was replaced with 25 uL of serum-free medium and incubated overnight. • 8) 10 ul of 3.5X loading dye was added to each well of the cell plate. The plate was incubated in the dark at 37°C with 5% CO2 for 0.5-1 hours. • 9) After incubation, 5 µl of the 10X working solution from step 2 was transferred to the cell plate. • 10) The cell plate was incubated in the dark at 25°C for 15 minutes, and then the calcium signals were read. • 11) A 5X agonist (LPA) working solution in 1X HBSS+20 mM HEPES+0.1% BSA was prepared in a 384-well assay plate (greiner 784075#), with at least 20 µl per well. The agonist concentration used in this assay was determined based on the dose-response curve from a prior agonist mode experiment, with the EC80 value serving as the final agonist concentration. • 12) Data were read and saved using FLIPR at room temperature with the specified settings. • 13) The signal values were plotted against compound concentrations, and the curve fitting was performed and the IC50 values were calculated using nonlinear regression analysis in GraphPad Prism software.
IC50 values are represented by grades A, B, C, and D, where A represents 0 < IC50 ≤ 10 nM, B represents 10 nM < IC50 ≤ 50 nM, C represents 50 nM < IC50 ≤ 100 nM, and D represents IC50 > 100 nM. Table 1 Antagonistic activity of the compounds of the present invention against LPAR1

[3] = Pharmacokinetic test in mice; type: in vivo, C57 mice; conditions: for pharmacokinetic characteristics in mice: conclusion in words; for Vd: read-out: Vdss
Protocol: 2.1 Experimental animals: Male C57 mice, 20-25 g, 6 mice/compound, purchased from Chengdu Ddossy Experimental Animals Co., Ltd.
2.2 Experimental design: On the day of the experiment, the C57 mice were randomly grouped according to their body weights. The animals were fasted with water available for 12-14 h one day before the administration, and were fed 4 h after the administration. Table 2. Administration information
as §1, with “0.06” for “0.15”, “collected. The blood collection time points for the intravenous administration group and oral gavage administration group were: 0 min, 5 min, 15 min, 30 min, 1 h, 2 h, 4 h, 6 h, 8 h, and 24 h.” for “collected.”, “3.” for “5.”, “compounds” for “compound”, “mice” for “rats”

Caco2 permeability test = type: in vitro ADME; conditions: human, Caco-2 monolayer, 2 hours at 37°C
Protocol: In the experiment, a monolayer of Caco-2 cells was used, and incubated in triplicate in a 96-well Transwell plate. A transport buffer solution (HBSS, 10 mM HEPES, pH 7.4 ± 0.05) containing the compound of the present invention (2 µM) or the control compound digoxin (10 µM), nadolol (2 µM) or metoprolol (2 µM) was added to the administration end hole on the apical side or basal side. A DMSO-containing transport buffer solution was added to the corresponding receiving end hole. After incubation for 2 hours at 37°C ± 1°C, the cell plate was removed, and an appropriate amount of samples was taken from both the apical side and basal side and transferred to a new 96-well plate. Subsequently, acetonitrile containing an internal standard was added to precipitate the protein. The samples were analysed using LC MS/MS, and the concentrations of the compound of the present invention and the control compound were determined. Concentration data were used to calculate apparent permeability coefficients for transport from the apical side to the basal side, and from the basal side to the apical side of the cell monolayer, and thus to calculate the efflux ratio. The integrity of the cell monolayer after 2 hours of incubation was evaluated by leakage of Lucifer Yellow.

[4] = 1 mg/kg oral gavage twice daily for 14 consecutive days
[5] = 3 mg/kg oral gavage twice daily for 14 consecutive days
[6] = 3 mg/kg oral gavage twice daily for 14 consecutive days, lung tissue at study endpoint
[7] = rat, iv, rats, i.v. (1 mg/kg), plasma
[8] = rat, po, rats, i.g. (3 mg/kg), plasma
[9] = mouse, iv, mice, i.v. (1 mg/kg), plasma
[10] = mouse, po, mice, i.g. (3 mg/kg), plasma

SMILES | pharmacokinetic characteristics in rats [2] | AUC(0-t) [2, 7] [ng·h/mL] | clearance [2, 7] [mL/min/kg] | Vd [2, 7] [L/kg] | AUC(0-t) [2, 8] [ng·h/mL] | C0 or Cmax ([2]; rats, i.g. (3 mg/kg), plasma) [ng/mL] | C0 or Cmax ([2]; rats, i.v. (1 mg/kg), plasma) [ng/mL] | IC50 (LPAR1) [nM] | pharmacokinetic characteristics in mice [3] | C0 or Cmax ([3]; mice, i.g. (3 mg/kg), plasma) [ng/mL] | C0 or Cmax ([3]; mice, i.v. (1 mg/kg), plasma) [ng/mL] | AUC(0-t) [3, 9] [ng·h/mL] | clearance [3, 9] [mL/min/kg] | Vd [3, 9] [L/kg] | AUC(0-t) [3, 10] [ng·h/mL] | also measured
Cc1nc(-c2nnn(C)c2CNC(=O)OC2CC(=C(F)F)C2)ccc1O[C@H]1CCC[C@H](C(=O)O)C1 (stereo partly shown) [Compound 22] | good pharmacokinetic characteristics | 1790 ± 321 | 9.45 ± 1.7 | 1.21 ± 0.17 | 6710 ± 652 | 1630 ± 162 | 2428 ± 221 | < 10 | excellent pharmacokinetic characteristics | 1788 ± 180 | 1537 ± 290 | 1570 ± 74 | 10.4 ± 0.55 | 2.77 ± 0.16 | 5610 ± 1410 | Modified Ashcroft score compared with the vehicle-treated model group [1, 4]: significantly reduced; fibrotic area in lung tissues compared with the vehicle-treated model group [1, 4]: significantly reduced; Modified Ashcroft score compared with the vehicle-treated model group [1, 5]: significantly reduced; fibrotic area in lung tissues compared with the vehicle-treated model group [1, 5]: significantly reduced; Modified Ashcroft score [1, 6]: less than 4; fibrotic area [1, 6]: less than 20%; efficacy relative to BMS-986278 (10 mg/kg) and nintedanib (60 mg/kg) ([1]; dose of 1 mg/kg): comparable to that of BMS-986278 (10 mg/kg) and nintedanib (60 mg/kg); efficacy relative to BMS-986278 and nintedanib ([1]; dose of 3 mg/kg): superior efficacy to both BMS-986278 and nintedanib; bioavailability ([2]; rat, plasma, po, rats, i.g. (3 mg/kg)): ≥ 98%; bioavailability ([3]; mouse, plasma, po, mice, i.g. (3 mg/kg)): ≥ 98%
C=C1CC(OC(=O)NCc2c(-c3ccc(O[C@H]4CCC[C@H](C(=O)O)C4)c(C)n3)nnn2C)C1 [Compound 26] | good pharmacokinetic characteristics | 1870 ± 246 | 8.91 ± 1.2 | 1.21 ± 0.5 | 2880 ± 913 | 1144 ± 145 | 2745 ± 354 | < 10 | excellent pharmacokinetic characteristics | 659 ± 55 | 2268 ± 193 | 1580 ± 50 | 10.3 ± 0.52 | 2.83 ± 0.53 | 2290 ± 102 | efflux ratio at 2 h, 2 µM (Caco2 permeability test; pH 7.4): 6.79; Papp A→B at 2 h, 2 µM (Caco2 permeability test; pH 7.4, read-out: Average apparent permeability coefficient A-B): 4.31 ×10⁻⁶ cm/s; Papp B→A at 2 h, 2 µM (Caco2 permeability test; pH 7.4, read-out: Average apparent permeability coefficient B-A): 29.2 ×10⁻⁶ cm/s
